The numbers were not newly measured in patent US20110171138A1, “SUBSTANTIALLY PURE DEFERASIROX AND PROCESSES FOR THE PREPARATION THEREOF” (ACTAVIS GROUP PTC EHF, priority 2008, published 2011), which cites them from elsewhere.

For the data set the following is noted: in water and in acid medium; the solubility increasing with pH.

The structures appear in SMILES notation.

As for `O=C(O)c1ccc(-n2nc(-c3ccccc3O)nc2-c2ccccc2O)cc1` [Deferasirox, 4-[3,5-Bis(2-hydroxyphenyl)-1H-1,2,4-triazol-1-yl]benzoic acid], the solubility entry is recorded as “practically insoluble”.
